The results in this text go back to US20250281457A1, “TREATMENT OR PREVENTION OF DENGUE VIRAL INFECTION” (Janssen Pharmaceuticals, Inc., priority 2022, published 2025).

The nature of the data set: Safety and tolerability, adverse events (Example 5). The format is in vivo, human. The protocol:
Safety and tolerability of Compound (a) was evaluated throughout the study, as described in Example 1.

Structures are written as SMILES.

As for `COc1cc(NC(C(=O)c2c[nH]c3ccc(OC(F)(F)F)cc23)c2ccc(Cl)cc2OC)cc(S(C)(=O)=O)c1` (centres unmarked) [Compound (a)], the Related adverse events entry is recorded as “no related AEs” (Panel I (LD 450 mg twice daily for two days, MD 900 mg Q7D)); “one Grade 1 AE of skin burning sensation considered related” (Panel II (LD 450 mg twice daily for two days, MD 450 mg Q3D or Q4D)); “no related AEs” (Panel III (LD 150 mg twice daily for two days, MD 300 mg Q7D)); “two Grade 1 AE of pruritic rash considered related” (Panel IV (LD 150 mg twice daily for two days, MD 150 mg Q3D or Q4D)). For the same molecule, the “Grade 2 Treatment Emergent Events, overall” value (Panels I-IV) is 4. The “Grade 3 Treatment Emergent Events, overall” value (Panels I-IV) was “No”. For the same molecule, the “Safety and tolerability, overall conclusion” value (Panels I-IV) was “safe and well tolerated”. Also, for the setting “Panels I-IV”, the “serious adverse events (SAEs) or/and serious unexpected adverse reactions (SUSARs) observed” value is “No”.
